# Data reported in patent US20240279278A1, “NMU RECEPTOR 2 AGONISTS” (Boehringer Ingelheim International GmbH, priority 2023, published 2024).
# Starred links: 1 amine or outer side, 2 acyl side, 3 side chain; linkers in the order of their positions; H or OH if unused. Non-standard residues stand in square brackets, D forms with d. Residues, ends and D or L forms follow the SMILES beside them. *: point of attachment. Pipz(1-CH2CO,4-CH2CH2NH) = O=C(CN1CCN(CCN[*:1])CC1)[*:2]; C18 diacid = O=C(O)CCCCCCCCCCCCCCCCC(=O)*; γGlu = O=C(O)[C@H](CCC(=O)[*:2])N[*:1]; 2Pal = N[C@@H](Cc1ccccn1)C(=O)O; 4Pal = N[C@@H](Cc1ccncc1)C(=O)O; NMeL = CN[C@@H](CC(C)C)C(=O)O; NMeA = CN[C@@H](C)C(=O)O; Nle = CCCC[C@H](N)C(=O)O; Sar = CNCC(=O)O
# Assays:
# Type in all cases: cell-based
# [1] = molecular target: T1, human NMUR2 receptor (Homo sapiens, UniProt Q9GZQ4); test: IP1 Gq HTRF assay, activation of human NMUR2 in human plasma; design: expressed in transfected cells; host or cells: CHO-K1; conditions: CHO-K1 cells expressing human NMUR2, 100% human plasma; read-out: EC50 (hNMUR2) human plasma
# T1 sequence (Q9GZQ4 whole entry): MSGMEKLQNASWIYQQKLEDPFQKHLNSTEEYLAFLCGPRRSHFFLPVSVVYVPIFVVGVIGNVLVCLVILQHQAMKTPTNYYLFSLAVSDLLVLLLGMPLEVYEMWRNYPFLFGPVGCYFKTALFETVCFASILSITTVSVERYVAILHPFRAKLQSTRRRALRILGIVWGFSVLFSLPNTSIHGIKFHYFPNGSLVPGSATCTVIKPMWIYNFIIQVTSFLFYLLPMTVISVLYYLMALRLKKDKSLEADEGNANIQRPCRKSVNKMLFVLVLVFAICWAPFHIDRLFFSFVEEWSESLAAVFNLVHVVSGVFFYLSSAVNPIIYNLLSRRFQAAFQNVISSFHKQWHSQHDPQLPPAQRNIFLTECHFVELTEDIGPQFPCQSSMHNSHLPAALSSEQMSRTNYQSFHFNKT
# Method in brief: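 CHO-K1 cells stably expressing human NMUR2 exposed to peptide agonists (8-point dose-response) in 100% human plasma with 50 mM LiCl, 1% DMSO, for 1 h at 37° C. IP1 accumulation read by HTRF competition (665/620 nm ratio). EC50 from 4-parameter sigmoidal fit.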
# [2] = molecular target: T1, human NMUR2 receptor; test: IP1 Gq HTRF assay, activation of human NMUR2 in buffer; design: expressed in transfected cells; host or cells: CHO-K1; conditions: CHO-K1 cells expressing human NMUR2, stimulation buffer with 0.1% BSA; read-out: EC50 (hNMUR2) buffer
# Method in brief: (§1)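 CHO-K1 cells stably expressing human NMUR1 or NMUR2, seeded 24 h before assay, stimulated with peptide agonists (8-point dose-response, 1% DMSO final) in HEPES/HBSS buffer with 50 mM LiCl and 0.1% BSA, pH 7.4, 1 h at 37 °C. IP1 accumulation read by HTRF competition (665/620 nm); EC50 from 4-parameter sigmoidal fit.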
# [3] = molecular target: T2, human NMUR1 receptor (Homo sapiens, UniProt Q9HB89); test: IP1 Gq HTRF assay, activation of human NMUR1 in buffer; conditions: CHO-K1 cells expressing human NMUR1, stimulation buffer with 0.1% BSA; read-out: EC50 (hNMUR1) buffer
# T2 construct: expressed in transfected cells; host or cells: CHO-K1
# T2 sequence (Q9HB89 1-426): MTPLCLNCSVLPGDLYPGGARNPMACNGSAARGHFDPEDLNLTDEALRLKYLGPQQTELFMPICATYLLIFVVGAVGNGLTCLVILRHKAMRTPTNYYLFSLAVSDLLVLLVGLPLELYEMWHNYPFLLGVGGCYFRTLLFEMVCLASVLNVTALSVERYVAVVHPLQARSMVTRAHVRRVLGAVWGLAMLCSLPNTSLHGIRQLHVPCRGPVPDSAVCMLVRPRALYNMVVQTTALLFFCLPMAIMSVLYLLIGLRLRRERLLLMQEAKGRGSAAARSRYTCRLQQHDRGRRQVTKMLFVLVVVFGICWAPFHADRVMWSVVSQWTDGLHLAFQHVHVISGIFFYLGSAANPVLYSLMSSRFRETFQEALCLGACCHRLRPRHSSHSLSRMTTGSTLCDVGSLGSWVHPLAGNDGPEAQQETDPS
# Method in brief: as §1
SMILES,EC50 [1] [nM],EC50 [2] [nM],EC50 [3] [nM]
"CCCC[C@H](NC(=O)[C@H](CC(C)C)N(C)C(=O)[C@H](Cc1ccccc1)NC(=O)[C@H](Cc1ccc(O)cc1)NC(=O)CN1CCN(CCNC(=O)CN(C)C(=O)CN(C)C(=O)CN(C)C(=O)CN(C)C(=O)CN(C)C(=O)CN(C)C(=O)CN(C)C(=O)CN(C)C(=O)CN(C)C(=O)CN(C)C(=O)CN(C)C(=O)CN(C)C(=O)CC[C@H](NC(=O)CC[C@H](NC(=O)CC[C@H](NC(=O)CC[C@H](NC(=O)CCCCCCCCCCCCCCCCCCC(=O)O)C(=O)O)C(=O)O)C(=O)O)C(=O)O)CC1)C(=O)N[C@@H](CCCNC(=N)N)C(=O)N1CCC[C@H]1C(=O)N[C@@H](CCCNC(=N)N)C(=O)NCC(N)=O [Compound 39, C20DA-gGlu4-Sar12-AEPipAc-Tyr-Phe-NMeLeu-Nle-Arg-Pro-Arg-Gly-NH2]",10.4,2.5,190
"CCCC[C@H](NC(=O)[C@H](CC(C)C)N(C)C(=O)[C@H](Cc1ccccc1)NC(=O)[C@H](Cc1ccc(O)cc1)NC(=O)CN1CCN(CCNC(=O)CN(C)C(=O)CN(C)C(=O)CN(C)C(=O)CN(C)C(=O)CN(C)C(=O)CN(C)C(=O)CN(C)C(=O)CN(C)C(=O)CN(C)C(=O)CN(C)C(=O)CN(C)C(=O)CN(C)C(=O)CC[C@H](NC(=O)CC[C@H](NC(=O)CC[C@H](NC(=O)CC[C@H](NC(=O)CCCCCCCCCCCCCCCCC(=O)O)C(=O)O)C(=O)O)C(=O)O)C(=O)O)CC1)C(=O)N[C@@H](CCN)C(=O)N1CCC[C@H]1C(=O)N[C@@H](CCCNC(=N)N)C(=O)NCC(N)=O [Compound 41, C18DA-gGlu4-Sar12-AEPipAc-Tyr-Phe-NMeLeu-Nle-Dbu-Pro-Arg-Gly-NH2]",12.2,2,1300
"CCCC[C@H](NC(=O)[C@H](CC(C)C)N(C)C(=O)[C@H](Cc1ccccc1)NC(=O)[C@H](Cc1ccc(O)cc1)NC(=O)CN1CCN(CCNC(=O)CN(C)C(=O)CN(C)C(=O)CN(C)C(=O)CN(C)C(=O)CN(C)C(=O)CN(C)C(=O)CN(C)C(=O)CN(C)C(=O)CN(C)C(=O)CC[C@H](NC(=O)CC[C@H](NC(=O)CCCCCCCCCCCCCCCCC(=O)O)C(=O)O)C(=O)O)CC1)C(=O)N[C@@H](CCCN)C(=O)N(C)[C@@H](C)C(=O)N[C@@H](CCCNC(=N)N)C(=O)NCC(N)=O [Compound 44, C18DA-gGlu2-Sar9-AEPipAc-Tyr-Phe-NMeLeu-Nle-Orn-NMeAla-Arg-Gly-NH2] (HELM PEPTIDE1{[O=C(O)CCCCCCCCCCCCCCCCC(=O)[*:2]].[gGlu].[gGlu].[Sar].[Sar].[Sar].[Sar].[Sar].[Sar].[Sar].[Sar].[Sar].[O=C(CN1CCN(CCN[*:1])CC1)[*:2]].Y.F.[meL].[Nle].[Orn].[meA].R.G.[am]}$$$$V2.0)",20.5,2.2,> 1000
"CCCC[C@H](NC(=O)[C@H](CC(C)C)N(C)C(=O)[C@H](Cc1ccccc1)NC(=O)[C@H](Cc1ccc(O)cc1)NC(=O)CN1CCN(CCNC(=O)CN(C)C(=O)CN(C)C(=O)CN(C)C(=O)CN(C)C(=O)CN(C)C(=O)CN(C)C(=O)CN(C)C(=O)CN(C)C(=O)CN(C)C(=O)CN(C)C(=O)CN(C)C(=O)CN(C)C(=O)CN(C)C(=O)CN(C)C(=O)CN(C)C(=O)CC[C@H](NC(=O)CC[C@H](NC(=O)CC[C@H](NC(=O)CCCCCCCCCCCCCCCCC(=O)O)C(=O)O)C(=O)O)C(=O)O)CC1)C(=O)N[C@@H](Cc1ccncc1)C(=O)N1CCC[C@H]1C(=O)N[C@@H](CCCNC(=N)N)C(=O)NCC(N)=O [Compound 45, C18DA-gGlu3-Sar15-AEPipAc-Tyr-Phe-NMeLeu-Nle-4Pal-Pro-Arg-Gly-NH2] ({C18 diacid-γGlu-γGlu-γGlu}-[Sar][Sar][Sar][Sar][Sar][Sar][Sar][Sar][Sar][Sar][Sar][Sar][Sar][Sar][Sar][Pipz(1-CH2CO,4-CH2CH2NH)]YF[NMeL][Nle][4Pal]PRG-NH2)",129,30,> 1000
"CCCC[C@H](NC(=O)[C@H](CC(C)C)N(C)C(=O)[C@H](Cc1ccccc1)NC(=O)[C@H](Cc1ccc(O)cc1)NC(=O)CN1CCN(CCNC(=O)CN(C)C(=O)CN(C)C(=O)CN(C)C(=O)CN(C)C(=O)CN(C)C(=O)CN(C)C(=O)CN(C)C(=O)CN(C)C(=O)CN(C)C(=O)CN(C)C(=O)CN(C)C(=O)CN(C)C(=O)CN(C)C(=O)CN(C)C(=O)CN(C)C(=O)CC[C@H](NC(=O)CC[C@H](NC(=O)CC[C@H](NC(=O)CCCCCCCCCCCCCCCCC(=O)O)C(=O)O)C(=O)O)C(=O)O)CC1)C(=O)N[C@@H](CCCCN)C(=O)N1CCC[C@H]1C(=O)N[C@@H](CCCNC(=N)N)C(=O)NCC(N)=O [Compound 46, C18DA-gGlu3-Sar15-AEPipAc-Tyr-Phe-NMeLeu-Nle-Lys-Pro-Arg-Gly-NH2] (HELM PEPTIDE1{[O=C(O)CCCCCCCCCCCCCCCCC(=O)[*:2]].[gGlu].[gGlu].[gGlu].[Sar].[Sar].[Sar].[Sar].[Sar].[Sar].[Sar].[Sar].[Sar].[Sar].[Sar].[Sar].[Sar].[Sar].[Sar].[O=C(CN1CCN(CCN[*:1])CC1)[*:2]].Y.F.[meL].[Nle].K.P.R.G.[am]}$$$$V2.0)",26.2,13,> 1000
"CCCC[C@H](NC(=O)[C@H](CC(C)C)N(C)C(=O)[C@H](Cc1ccccc1)NC(=O)[C@H](Cc1ccc(O)cc1)NC(=O)CN1CCN(CCNC(=O)CN(C)C(=O)CN(C)C(=O)CN(C)C(=O)CN(C)C(=O)CN(C)C(=O)CN(C)C(=O)CN(C)C(=O)CN(C)C(=O)CN(C)C(=O)CN(C)C(=O)CN(C)C(=O)CN(C)C(=O)CN(C)C(=O)CN(C)C(=O)CN(C)C(=O)CC[C@H](NC(=O)CC[C@H](NC(=O)CC[C@H](NC(=O)CCCCCCCCCCCCCCCCC(=O)O)C(=O)O)C(=O)O)C(=O)O)CC1)C(=O)N[C@@H](CCCCN)C(=O)N(C)[C@@H](C)C(=O)N[C@@H](CCCNC(=N)N)C(=O)NCC(N)=O [Compound 47, C18DA-gGlu3-Sar15-AEPipAc-Tyr-Phe-NMeLeu-Nle-Lys-NMeAla-Arg-Gly-NH2] (HELM PEPTIDE1{[O=C(O)CCCCCCCCCCCCCCCCC(=O)[*:2]].[gGlu].[gGlu].[gGlu].[Sar].[Sar].[Sar].[Sar].[Sar].[Sar].[Sar].[Sar].[Sar].[Sar].[Sar].[Sar].[Sar].[Sar].[Sar].[O=C(CN1CCN(CCN[*:1])CC1)[*:2]].Y.F.[meL].[Nle].K.[meA].R.G.[am]}$$$$V2.0)",32.6,9.3,> 1000
"CCCC[C@H](NC(=O)[C@H](CC(C)C)N(C)C(=O)[C@H](Cc1ccccc1)NC(=O)[C@H](Cc1ccc(O)cc1)NC(=O)CN1CCN(CCNC(=O)CN(C)C(=O)CN(C)C(=O)CN(C)C(=O)CN(C)C(=O)CN(C)C(=O)CN(C)C(=O)CN(C)C(=O)CN(C)C(=O)CN(C)C(=O)CN(C)C(=O)CN(C)C(=O)CN(C)C(=O)CN(C)C(=O)CN(C)C(=O)CN(C)C(=O)CC[C@H](NC(=O)CC[C@H](NC(=O)CC[C@H](NC(=O)CCCCCCCCCCCCCCCCC(=O)O)C(=O)O)C(=O)O)C(=O)O)CC1)C(=O)N[C@@H](Cc1ccccn1)C(=O)N(C)[C@@H](C)C(=O)N[C@@H](CCCNC(=N)N)C(=O)NCC(N)=O [Compound 48, C18DA-gGlu3-Sar15-AEPipAc-Tyr-Phe-NMeLeu-Nle-2Pal-NMeAla-Arg-Gly-NH2] ({C18 diacid-γGlu-γGlu-γGlu}-[Sar][Sar][Sar][Sar][Sar][Sar][Sar][Sar][Sar][Sar][Sar][Sar][Sar][Sar][Sar][Pipz(1-CH2CO,4-CH2CH2NH)]YF[NMeL][Nle][2Pal][NMeA]RG-NH2)",> 1000,> 1000,> 1000
"CCCC[C@H](NC(=O)[C@H](CC(C)C)N(C)C(=O)[C@H](Cc1ccccc1)NC(=O)[C@H](Cc1ccc(O)cc1)NC(=O)CN1CCN(CCNC(=O)CN(C)C(=O)CN(C)C(=O)CN(C)C(=O)CN(C)C(=O)CN(C)C(=O)CN(C)C(=O)CN(C)C(=O)CN(C)C(=O)CN(C)C(=O)CN(C)C(=O)CN(C)C(=O)CN(C)C(=O)CN(C)C(=O)CN(C)C(=O)CN(C)C(=O)CC[C@H](NC(=O)CC[C@H](NC(=O)CC[C@H](NC(=O)CCCCCCCCCCCCCCCCCCC(=O)O)C(=O)O)C(=O)O)C(=O)O)CC1)C(=O)N[C@@H](CCCCN)C(=O)N1CCC[C@H]1C(=O)N[C@@H](CCCNC(=N)N)C(=O)NCC(N)=O [Compound 49, C20DA-gGlu3-Sar15-AEPipAc-Tyr-Phe-NMeLeu-Nle-Lys-Pro-Arg-Gly-NH2] (HELM PEPTIDE1{[O=C(O)CCCCCCCCCCCCCCCCCCC(=O)[*:2]].[gGlu].[gGlu].[gGlu].[Sar].[Sar].[Sar].[Sar].[Sar].[Sar].[Sar].[Sar].[Sar].[Sar].[Sar].[Sar].[Sar].[Sar].[Sar].[O=C(CN1CCN(CCN[*:1])CC1)[*:2]].Y.F.[meL].[Nle].K.P.R.G.[am]}$$$$V2.0)",25.2,11,1300
